Patent US20150322067A1, “NITROGEN CONTAINING COMPOUNDS AND THEIR USE” (priority 2011, published 2015)
Where two headings read alike, the source gives them in different places.

What was measured:
Assay in all cases: Agar dilution MIC (CLSI), beta-lactam with or without beta-lactamase inhibitor
Type in all cases: cell-based
E. coli 7 MP = conditions: Class C ESBL strain; for MIC of Ceftazidime + inhibitor: Ceftazidime in combination with inhibitor at 4 mcg/ml
Experimental: (§1) The biological activity of representative compounds of the invention against various bacterial strains (in combination with another antibacterial agent) was investigated. In a typical study, overnight grown bacterial cultures were diluted appropriately and inoculated on the agar media containing doubling dilutions of the antibiotics. Observation for growth or no growth was performed after 16-20 hours of incubation at 35±2° C. in ambient air. The overall procedure was performed as per Clinical and Laboratory Standards Institute (CLSI) recommendations (Clinical and Laboratory Standards Institute (CLSI), performance Standards for Antimicrobial Susceptibility Testing, 20th Informational Supplement, M 100-S20, Volume 30, No. 1, 2010). Table 1 details potencies of ceftazidime in combination of representative compound according to the invention (compound of formula (I) wherein M is sodium) against various MDR (Multi Drug Resistant) Gram-negative strains producing Class A, C and D beta-lactamase enzymes. The activities are expressed as MICs (mcg/ml). For comparison, the activity of various other known beta-lactamase inhibitors such as clavulanic acid, tazobactam, MK-7655, and NXL-104 are also provided.

E. coli B 89 = conditions: Class C ESBL strain; for MIC of Ceftazidime + inhibitor: Ceftazidime in combination with inhibitor at 4 mcg/ml
Experimental: as §1

E. coli M 50 = conditions: Class C ESBL strain; for MIC of Ceftazidime + inhibitor: Ceftazidime in combination with inhibitor at 4 mcg/ml
Experimental: as §1

E. coli NCTC 13351 = conditions: Class A ESBL strain; for MIC of Ceftazidime + inhibitor: Ceftazidime in combination with inhibitor at 4 mcg/ml
Experimental: as §1

E. coli NCTC 13352 = conditions: Class A ESBL strain; for MIC of Ceftazidime + inhibitor: Ceftazidime in combination with inhibitor at 4 mcg/ml
Experimental: as §1

[1] = system: K. pneumoniae ATCC 700603; conditions: Class A ESBL strain; for MIC of Ceftazidime + inhibitor: Ceftazidime in combination with inhibitor at 4 mcg/ml
Experimental: as §1

A. baumanni NCTC 13301 = conditions: Class D ESBL strain; for MIC of Ceftazidime + inhibitor: Ceftazidime in combination with inhibitor at 4 mcg/ml; for MIC of Meropenem + inhibitor: Meropenem in combination with inhibitor at 4 mcg/ml
Experimental: as §1
(§2) Table 2 details data corresponding to a combination of Meropenem with a compound of Formula (I), wherein M is sodium, against Class D ESBL producing strains. Class D ESBLs producing pathogens that confer a high degree of resistance to carbapenems are a therapeutic problem in the clinical settings since extremely limited treatment options are available to treat them.

A. baumanni NCTC 13304 = conditions: Class D ESBL strain; for MIC of Ceftazidime + inhibitor: Ceftazidime in combination with inhibitor at 4 mcg/ml; for MIC of Meropenem + inhibitor: Meropenem in combination with inhibitor at 4 mcg/ml
Experimental: as §1, §2

A. baumanni NCTC 13305 = conditions: Class D ESBL strain; for MIC of Ceftazidime + inhibitor: Ceftazidime in combination with inhibitor at 4 mcg/ml; for MIC of Meropenem + inhibitor: Meropenem in combination with inhibitor at 4 mcg/ml
Experimental: as §1, §2

[2] = Meropenem alone, read-out: MIC of Meropenem, Control
[3] = Ceftazidime alone, read-out: MIC of Ceftazidime, Control

Compound: C[C@]1(Cn2ccnn2)[C@H](C(=O)O)N2C(=O)C[C@H]2S1(=O)=O [Tazobactam, tazobactam]
- MIC of Ceftazidime + inhibitor (E. coli 7 MP): >32 µg/mL
- MIC of Ceftazidime + inhibitor (E. coli B 89): >32 µg/mL
- MIC of Ceftazidime + inhibitor (E. coli M 50): >32 µg/mL
- MIC of Ceftazidime + inhibitor (E. coli NCTC 13351): 0.5 µg/mL
- MIC of Ceftazidime + inhibitor (E. coli NCTC 13352): 1 µg/mL
- MIC of Ceftazidime + inhibitor [1]: 1 µg/mL
- MIC of Ceftazidime + inhibitor (A. baumanni NCTC 13301): >32 µg/mL
- MIC of Meropenem + inhibitor (A. baumanni NCTC 13301): 32 µg/mL
- MIC of Ceftazidime + inhibitor (A. baumanni NCTC 13304): >32 µg/mL
- MIC of Meropenem + inhibitor (A. baumanni NCTC 13304): 32 µg/mL
- MIC of Ceftazidime + inhibitor (A. baumanni NCTC 13305): 16 µg/mL
- MIC of Meropenem + inhibitor (A. baumanni NCTC 13305): 8 µg/mL

Compound: N#C[C@@H]1CC[C@@H]2CN1C(=O)N2OS(=O)(=O)[O-].[Na+] [Sodium salt of trans-7-oxo-6-(sulphoxy)-1,6-diazabicyclo[3.2.1]-octane-2-carbonitrile]
- MIC of Ceftazidime + inhibitor (E. coli 7 MP): 2 µg/mL
- MIC of Ceftazidime + inhibitor (E. coli B 89): 1 µg/mL
- MIC of Ceftazidime + inhibitor (E. coli M 50): 1 µg/mL
- MIC of Ceftazidime + inhibitor (E. coli NCTC 13351): 0.5 µg/mL
- MIC of Ceftazidime + inhibitor (E. coli NCTC 13352): 0.5 µg/mL
- MIC of Ceftazidime + inhibitor [1]: 0.5 µg/mL
- MIC of Ceftazidime + inhibitor (A. baumanni NCTC 13301): 32 µg/mL
- MIC of Meropenem + inhibitor (A. baumanni NCTC 13301): 4 µg/mL
- MIC of Ceftazidime + inhibitor (A. baumanni NCTC 13304): 32 µg/mL
- MIC of Meropenem + inhibitor (A. baumanni NCTC 13304): 2 µg/mL
- MIC of Ceftazidime + inhibitor (A. baumanni NCTC 13305): 16 µg/mL
- MIC of Meropenem + inhibitor (A. baumanni NCTC 13305): 2 µg/mL

Compound: C[C@@H](O)[C@H]1C(=O)N2C(C(=O)O)=C(S[C@@H]3CN[C@H](C(=O)N(C)C)C3)[C@H](C)[C@H]12 [Meropenem]
- MIC (A. baumanni NCTC 13301; [2]): 32 µg/mL
- MIC (A. baumanni NCTC 13304; [2]): 32 µg/mL
- MIC (A. baumanni NCTC 13305; [2]): 8 µg/mL

Compound: NC(=O)[C@@H]1CC[C@@H]2CN1C(=O)N2OS(=O)(=O)O [NXL104]
- MIC of Ceftazidime + inhibitor (E. coli 7 MP): 4 µg/mL
- MIC of Ceftazidime + inhibitor (E. coli B 89): 1 µg/mL
- MIC of Ceftazidime + inhibitor (E. coli M 50): 1 µg/mL
- MIC of Ceftazidime + inhibitor (E. coli NCTC 13351): 0.5 µg/mL
- MIC of Ceftazidime + inhibitor (E. coli NCTC 13352): 0.5 µg/mL
- MIC of Ceftazidime + inhibitor [1]: 0.5 µg/mL
- MIC of Ceftazidime + inhibitor (A. baumanni NCTC 13301): >32 µg/mL
- MIC of Meropenem + inhibitor (A. baumanni NCTC 13301): 16 µg/mL
- MIC of Ceftazidime + inhibitor (A. baumanni NCTC 13304): 32 µg/mL
- MIC of Meropenem + inhibitor (A. baumanni NCTC 13304): 16 µg/mL
- MIC of Ceftazidime + inhibitor (A. baumanni NCTC 13305): 16 µg/mL
- MIC of Meropenem + inhibitor (A. baumanni NCTC 13305): 8 µg/mL

Compound: CC(C)(O/N=C(\C(=O)N[C@@H]1C(=O)N2C(C(=O)[O-])=C(C[n+]3ccccc3)CS[C@H]12)c1csc(N)n1)C(=O)O [Ceftazidime]
- MIC (E. coli 7 MP; Escherichia coli, 7MP, Ceftazidime alone, read-out: MIC of Ceftazidime, Control): > 32 µg/mL
- MIC (E. coli B 89; Escherichia coli, B89, Ceftazidime alone, read-out: MIC of Ceftazidime, Control): > 32 µg/mL
- MIC (E. coli M 50; Escherichia coli, M50, Ceftazidime alone, read-out: MIC of Ceftazidime, Control): > 32 µg/mL
- MIC (E. coli NCTC 13351; Escherichia coli, NCTC13351, Ceftazidime alone, read-out: MIC of Ceftazidime, Control): 32 µg/mL
- MIC (E. coli NCTC 13352; Escherichia coli, NCTC13352, Ceftazidime alone, read-out: MIC of Ceftazidime, Control): > 32 µg/mL
- MIC ([1]; Klebsiella pneumoniae, ATCC700603, Ceftazidime alone, read-out: MIC of Ceftazidime, Control): 32 µg/mL
- MIC (A. baumanni NCTC 13301; [3]): > 32 µg/mL
- MIC (A. baumanni NCTC 13304; [3]): > 32 µg/mL
- MIC (A. baumanni NCTC 13305; [3]): 16 µg/mL

Compound: O=C(O)[C@H]1/C(=C/CO)O[C@@H]2CC(=O)N21 [Clavulanic acid, clavulanic acid]
- MIC of Ceftazidime + inhibitor (E. coli 7 MP): >32 µg/mL
- MIC of Ceftazidime + inhibitor (E. coli B 89): >32 µg/mL
- MIC of Ceftazidime + inhibitor (E. coli M 50): >32 µg/mL
- MIC of Ceftazidime + inhibitor (E. coli NCTC 13351): 0.5 µg/mL
- MIC of Ceftazidime + inhibitor (E. coli NCTC 13352): 0.5 µg/mL
- MIC of Ceftazidime + inhibitor [1]: 0.5 µg/mL
- MIC of Ceftazidime + inhibitor (A. baumanni NCTC 13301): >32 µg/mL
- MIC of Meropenem + inhibitor (A. baumanni NCTC 13301): 32 µg/mL
- MIC of Ceftazidime + inhibitor (A. baumanni NCTC 13304): >32 µg/mL
- MIC of Meropenem + inhibitor (A. baumanni NCTC 13304): 32 µg/mL
- MIC of Ceftazidime + inhibitor (A. baumanni NCTC 13305): 16 µg/mL
- MIC of Meropenem + inhibitor (A. baumanni NCTC 13305): 8 µg/mL

Compound: O=C(NC1CCNCC1)[C@@H]1CC[C@@H]2CN1C(=O)N2OS(=O)(=O)O [MK 7655]
- MIC of Ceftazidime + inhibitor (E. coli 7 MP): 8 µg/mL
- MIC of Ceftazidime + inhibitor (E. coli B 89): 4 µg/mL
- MIC of Ceftazidime + inhibitor (E. coli M 50): 2 µg/mL
- MIC of Ceftazidime + inhibitor (E. coli NCTC 13351): 2 µg/mL
- MIC of Ceftazidime + inhibitor (E. coli NCTC 13352): 8 µg/mL
- MIC of Ceftazidime + inhibitor [1]: 2 µg/mL
- MIC of Ceftazidime + inhibitor (A. baumanni NCTC 13301): >32 µg/mL
- MIC of Meropenem + inhibitor (A. baumanni NCTC 13301): 32 µg/mL
- MIC of Ceftazidime + inhibitor (A. baumanni NCTC 13304): 32 µg/mL
- MIC of Meropenem + inhibitor (A. baumanni NCTC 13304): 32 µg/mL
- MIC of Ceftazidime + inhibitor (A. baumanni NCTC 13305): 16 µg/mL
- MIC of Meropenem + inhibitor (A. baumanni NCTC 13305): 8 µg/mL
